According to patent US20080165354A1, “Method and Apparatus For Dissolving Solid Matter in Liquid” (priority 2005, published 2008):
“Also recorded” adds a separate entry of the source.

How the values were obtained:
[1] = Flow-through dissolution test, concentration of the dissolution medium by in-line UV-Vis spectrophotometer; assay type: physicochemical; conditions: same setup as Example 1, flow rate 20 ml/min
Protocol: (§1) Dissolution testing was carried out employing simultaneous liquid/solid phase analysis. A modified flow-through dissolution method was used, in which • the concentration of the medium was measured with a UV-Vis spectrophotometer and • a simultaneous solid state analysis on the dissolving tablet in a flow-through chamber was performed using an in situ Raman spectroscopic analysis. The dissolution testing setup consisted of the flow-through cell, liquid reservoir (V=500 ml) and a peristaltic pump that circulates the medium (pump speed=70 rpm 9,3 ml/min). The dissolution medium used in the experiments was distilled water (room temperature).

[2] = In situ Raman spectroscopic solid state analysis of the dissolving tablet in a flow-through chamber; assay type: physicochemical; conditions: same setup as Example 1, flow rate 20 ml/min
Protocol: as §1, with “temperature). The Raman spectra were collected using a Raman spectrometer (Control Development, South Bend, Ind., USA) with a diode laser (Starbright 785 S, Torsana Laser Technologies, Skodsborg, Denmark) at 785 nm. A fiber optic sampling probe (InPhotonics, Norwood, MA, USA) was used. The spectral range measured was 2200-100 cm^−1 at a resolution of 5 cm^−1.” for “temperature).”

O=C1CN(/N=C/c2ccc([N+](=O)[O-])o2)C(=O)N1 [NF anhydrate, Nitrofurantoin]
changes of the dissolution rate [1]: more complicated when compared to changes in the dissolution rate of TP
solid phase transformation during dissolution [2]: solid phase transformation of NF anhydrate to NF monohydrate (II); also recorded: an order of magnitude slower than that of TP anhydrate
